Values joined by “and” are separate entries in the source; they are usually repeats but may differ in a detail not shown here. Equal entries are not always repeated. Structures can show the parent of a compound that is named as a salt. Where two headings read alike, the source gives them in different places.

One assay has as its target T1, p52 (Homo sapiens, UniProt Q00653).
T1 sequence (Q00653 1-454 limits assumed): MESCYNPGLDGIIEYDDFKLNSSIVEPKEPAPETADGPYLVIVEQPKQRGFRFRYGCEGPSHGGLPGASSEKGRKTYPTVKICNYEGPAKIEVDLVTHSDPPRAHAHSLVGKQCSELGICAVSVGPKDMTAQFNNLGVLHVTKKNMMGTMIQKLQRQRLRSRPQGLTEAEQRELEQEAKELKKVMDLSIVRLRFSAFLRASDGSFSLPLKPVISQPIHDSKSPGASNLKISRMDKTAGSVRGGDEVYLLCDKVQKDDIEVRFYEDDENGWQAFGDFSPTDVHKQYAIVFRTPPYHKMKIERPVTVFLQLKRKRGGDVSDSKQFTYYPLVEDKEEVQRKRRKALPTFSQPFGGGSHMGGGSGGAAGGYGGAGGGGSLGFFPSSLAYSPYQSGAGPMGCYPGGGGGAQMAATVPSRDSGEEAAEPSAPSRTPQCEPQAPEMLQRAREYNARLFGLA
Kind of assay: DSE-FRET p52–DNA binding inhibition. In kind it is biochemical. Further details: p52 Retest % Inhibition Run2 / p52 Retest % Inhibition Avg. / Kinetic assay p52 Inhibition % ΔRFU(60 min-0 min) / p52 HTS % Inhibition / p52 Retest % Inhibition Run1: dose or concentration left out as unconfirmed. The settings on record: for p52 Retest % Inhibition Avg.: Retest average of Run1 and Run2.

The target in a further assay is RelA (Homo sapiens, UniProt Q04206). Kind of assay: DSE-FRET RelA–DNA binding inhibition. The settings on record: for RelA Retest % Inhibition Avg.: Retest average of Run1 and Run2. Further details: Kinetic assay RelA Inhibition % ΔRFU(60 min-0 min) / RelA HTS % Inhibition / RelA Retest % Inhibition Run1 / RelA Retest % Inhibition Run2 / RelA Retest % Inhibition Avg. / Kinetic assay RelA % Inhibition ΔRFU(60 min-0 min): dose or concentration left out as unconfirmed. In kind it is biochemical.
Sequence of RelA (Q04206 19-306 limits assumed): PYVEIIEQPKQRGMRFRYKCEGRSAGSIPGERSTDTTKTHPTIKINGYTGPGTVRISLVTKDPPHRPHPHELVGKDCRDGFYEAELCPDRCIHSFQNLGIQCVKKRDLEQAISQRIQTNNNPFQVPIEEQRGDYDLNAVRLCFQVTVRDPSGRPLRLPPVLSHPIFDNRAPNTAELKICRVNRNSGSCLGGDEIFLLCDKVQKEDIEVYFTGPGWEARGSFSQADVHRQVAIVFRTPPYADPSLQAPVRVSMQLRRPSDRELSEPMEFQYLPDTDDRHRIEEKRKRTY

[1] abbreviates: HTS, known drugs, 10 µM, read-out: p52 HTS % Inhibition @ 10 µM.
Where [2] appears, read: kinetic assay, 60 min-0 min, 10 µM, read-out: Kinetic assay @ 10 µM p52 % Inhibition ΔRFU(60 min-0 min).
[3] abbreviates: retest, Run1, 10 µM, read-out: p52 Retest % Inhibition @ 10 µM Run1.
Setting [4] is: retest, Run2, 10 µM, read-out: p52 Retest % Inhibition @ 10 µM Run2.
The mark [5] stands for this setting: retest, average of Run1 and Run2, 10 µM, read-out: p52 Retest % Inhibition @ 10 µM Avg.
[6] abbreviates: HTS, known drugs, 10 µM, read-out: RelA HTS % Inhibition @ 10 µM.
[7] abbreviates: kinetic assay, 60 min-0 min, 10 µM, read-out: Kinetic assay @ 10 µM RelA % Inhibition ΔRFU(60 min-0 min).
The mark [8] stands for this setting: retest, Run1, 10 µM, read-out: RelA Retest % Inhibition @ 10 µM Run1.
Setting [9] is: retest, Run2, 10 µM, read-out: RelA Retest % Inhibition @ 10 µM Run2.
Where [10] appears, read: retest, average of Run1 and Run2, 10 µM, read-out: RelA Retest % Inhibition @ 10 µM Avg.
Setting [11] is: retest of known drugs, 1 = judged hit.
Where [12] appears, read: kinetic assay, ΔRFU 60 min-0 min.

Experimental for RelA: Plate-based (384 scale) DNA-binding experiments were carried out with 0.1 µL of 2 mM or 1 mg/mL compound, 2 µL of 80 nM NF-D1 (consisting of NF-01F and NF-14D), 1 µL of 20 ng/µL poly dI-dC, and 6.9 µL of 3.2 pmol protein in binding buffer (10 mM 4-(2-hydroxyethyl)-1-piperazineethanesulfonic acid (HEPES)–NaOH pH 7.9, 50 mM KCl, 0.1 mM ethylenediaminetetraacetic acid (EDTA), 2.5 mM dithiothreitol (DTT), 10% glycerol, and 0.05% Nonidet P40). The plates were incubated for 30 min at room temperature, after which 10 µL of NF-D2 (consisting of NF-02 and NF-13) was added. The plates were centrifuged at 1000 rpm for 30 s, followed by shaking for 30 s using a plate shaker (Biotec). Fluorescence was measured at 528 nm, after excitation at 485 nm, using a multiplate reader (Biotec) over a period of 60 min.

Take `Cc1[nH]c(/C=C2\C(=O)Nc3ccccc32)c(C)c1CCC(=O)O` [SU 6668]: the inhibition at 10 µM at p52 (setting [1]) was 33.8%; at p52 (setting [2]) it was -12%; on p52 (setting [3]), 29.3%; on p52 (setting [4]), 32.3%; at p52 (setting [5]) it was 30.8%; at RelA (setting [6]), 29.9%. Further, the inhibition at 10 µM on RelA (setting [7]) is -15%; on RelA (setting [8]) it was 32.3%; on RelA (setting [9]), 36.4%; at RelA (setting [10]) it was 34.3%.
In the case of `O=C1C=CC(=C(c2ccc(O)c(O)c2)c2ccccc2S(=O)(=O)O)C=C1O` (mixture of isomers) [Pyrocatechol violet], the “Hit Judgement of: p52” value at p52 (1 = judged hit after retest) came out at 1. Besides, the inhibition at 5 µg/mL on p52 (HTS, 5 µg/mL, NPDepo hits, read-out: p52 HTS % Inhibition @ 5 µg/mL) was found to be 4.4%; on p52 (Retest Run1, 5 µg/mL, read-out: p52 Retest % Inhibition @ 5 µg/mL Run1) it was 14.9%; on p52 (Retest Run2, 5 µg/mL, read-out: p52 Retest % Inhibition @ 5 µg/mL Run2), 16.2%; on p52 (Retest average of Run1 and Run2, 5 µg/mL, read-out: p52 Retest % Inhibition @ 5 µg/mL Avg.), 15.6%; at p52 (kinetic assay, 5 µg/mL, ΔRFU 60 min-0 min, read-out: Kinetic assay @ 5 µg/mL p52 Inhibition % ΔRFU(60 min-0 min)), 6%; at RelA (HTS, 5 µg/mL, NPDepo hits, read-out: RelA HTS % Inhibition @ 5 µg/mL), 52.5%. Moreover, the inhibition at 5 µg/mL at RelA (Retest Run1, 5 µg/mL, read-out: RelA Retest % Inhibition @ 5 µg/mL Run1) stood at 43.2%; at RelA (Retest Run2, 5 µg/mL, read-out: RelA Retest % Inhibition @ 5 µg/mL Run2), 47.5%; on RelA (Retest average of Run1 and Run2, 5 µg/mL, read-out: RelA Retest % Inhibition @ 5 µg/mL Avg.) it was 45.3%; on RelA (kinetic assay, 5 µg/mL, ΔRFU 60 min-0 min, read-out: Kinetic assay @ 5 µg/mL RelA Inhibition % ΔRFU(60 min-0 min)), 15%. In addition, the “Hit Judgement of: RelA” value at RelA (1 = judged hit after retest) is given as 1.
In the case of `CC1(C)C(=O)N=C2C1=C(O)C(=O)c1ccccc12` [BVT 948], on p52 (HTS, known drugs), the “p52 HTS % Inhibition” value is on record as 38.2%. Also, at p52, the “p52 Retest % Inhibition Run1” value is reported as 22.0%, the “p52 Retest % Inhibition Run2” value was 33.7% and the “p52 Retest % Inhibition Avg.” value turned out to be 27.8%. The “Kinetic assay p52 % Inhibition ΔRFU(60 min-0 min)” value at p52 (kinetic assay, 60 min-0 min) was found to be 7%. Besides, at p52 (setting [11]), the “Hit Judgement of: p52” value is listed as 1. For the same compound, the “RelA HTS % Inhibition” value on RelA (HTS, known drugs) is 34.4%. Also, on RelA, the “RelA Retest % Inhibition Run1” value worked out at 48.4%, the “RelA Retest % Inhibition Run2” value was determined as 67.6% and the “RelA Retest % Inhibition Avg.” value was determined as 58.0%. Also, the “Kinetic assay RelA % Inhibition ΔRFU(60 min-0 min)” value at RelA (kinetic assay, 60 min-0 min) is recorded as 21%. Besides, the “Hit Judgement of: RelA” value on RelA (setting [11]) was 1.
On to `O=C(O[C@H]1C[C@H]2CC[C@@H](C1)[N+]21CCCC1)C(O)(c1ccccc1)c1ccccc1` [TROSPIUM CHLORIDE], for which the results for the inhibition at 10 µM at p52 (setting [1]) and at RelA (setting [6]) were 116% and 108%, respectively.
Consider `COc1ccc2[nH]cc(C3=CCNCC3)c2c1.COc1ccc2[nH]cc(C3=CCNCC3)c2c1.O=C(O)CCC(=O)O` [RU 24969 hemisuccinate], for which, on p52 (kinetic assay, 60 min-0 min), the “Kinetic assay p52 % Inhibition ΔRFU(60 min-0 min)” value is on record as -22%. For the same compound, the “Kinetic assay RelA % Inhibition ΔRFU(60 min-0 min)” value at RelA (kinetic assay, 60 min-0 min) was -19%.
Taken in the same sequence, the figures for SN 38 were -2% and -0.814%.
As for `Nc1ccc2nc3ccc(N)cc3[n+](-c3ccccc3)c2c1.[Cl-]` [Phenosafranin], the “p52 HTS % Inhibition” value on p52 (HTS, NPDepo hits) is recorded as 86.7%. Besides, at p52, the “p52 Retest % Inhibition Run1” value is reported as 78.7%, the “p52 Retest % Inhibition Run2” value was found to be 85.1% and the “p52 Retest % Inhibition Avg.” value is listed as 81.9%. Moreover, the “Kinetic assay p52 Inhibition % ΔRFU(60 min-0 min)” value at p52 (setting [12]) is reported as -3.56%. Besides, the “RelA HTS % Inhibition” value on RelA (HTS, NPDepo hits) was found to be 99.3%. Besides, on RelA, the “RelA Retest % Inhibition Run1” value is given as 77.2%, the “RelA Retest % Inhibition Run2” value amounted to 83.4% and the “RelA Retest % Inhibition Avg.” value amounted to 80.3%. Besides, the “Kinetic assay RelA Inhibition % ΔRFU(60 min-0 min)” value on RelA (setting [12]) is -12%.
With `O=C1Nc2ccc(I)cc2/C1=C/c1cc(Br)c(O)c(Br)c1` [GW 5074], on p52 (kinetic assay, 60 min-0 min), the “Kinetic assay p52 % Inhibition ΔRFU(60 min-0 min)” value was -18%. Also, the “Kinetic assay RelA % Inhibition ΔRFU(60 min-0 min)” value on RelA (kinetic assay, 60 min-0 min) is -17%.
As for `COc1cccc2c1C(=O)c1c(O)c3c(c(O)c1C2=O)C[C@@](O)(C(=O)CO)C[C@@H]3O[C@H]1C[C@H](N)[C@H](O)[C@H](C)O1` [Doxorubicin hydrochloride], the “Kinetic assay p52 % Inhibition ΔRFU(60 min-0 min)” value at p52 (kinetic assay, 60 min-0 min) was -15% and -17%. For the same compound, the “Kinetic assay RelA % Inhibition ΔRFU(60 min-0 min)” value on RelA (kinetic assay, 60 min-0 min) is -15%.
As to `CCN1C(=O)C(=CC=C2Oc3ccccc3N2CCC(=O)O)N(C)C1=S`, at p52 (HTS, NPDepo hits), the “p52 HTS % Inhibition” value came to 115.0%. The “Kinetic assay p52 Inhibition % ΔRFU(60 min-0 min)” value at p52 (setting [12]) is recorded as -27%. In addition, the “RelA HTS % Inhibition” value on RelA (HTS, NPDepo hits) is 107.7%. In addition, the “Kinetic assay RelA Inhibition % ΔRFU(60 min-0 min)” value on RelA (setting [12]) is -18%.
As for `O=c1cc[nH]c(=O)[nH]1` [URACIL], the inhibition at 10 µM is 30.5% at p52 (setting [1]); -1% at p52 (setting [2]); 0.245% at p52 (setting [3]); 0.9% at p52 (setting [4]); 0.6% on p52 (setting [5]); 1.1% on RelA (setting [6]). The inhibition at 10 µM was -1.11% at RelA (setting [7]), 0.0644% at RelA (setting [8]), 0.634% on RelA (setting [9]) and 0.349% on RelA (setting [10]).
In the case of `CC(=O)Oc1cccc2c1C(=O)c1c(OC(C)=O)cc(C(=O)O)cc1C2=O` [Diacerein], the inhibition at 10 µM was determined as 72.2% at p52 (setting [1]); 3% at p52 (setting [2]); 46.8% at p52 (setting [3]); 54% at p52 (setting [4]); 50.4% on p52 (setting [5]); 97.4% at RelA (setting [6]). For the same compound, the inhibition at 10 µM on RelA (setting [7]) was 4%; on RelA (setting [8]), 51.6%; at RelA (setting [9]), 57.2%; on RelA (setting [10]), 54.4%.
As for `CC(=O)Oc1cccc2c1C(=O)c1c(OC(C)=O)cc(C(=O)O)cc1C2=O` [DIACERIN], the “Kinetic assay p52 % Inhibition ΔRFU(60 min-0 min)” value at p52 (kinetic assay, 60 min-0 min) was determined as 2.21%. Moreover, the “Kinetic assay RelA % Inhibition ΔRFU(60 min-0 min)” value at RelA (kinetic assay, 60 min-0 min) amounted to 3%.
In the same order, the values of `COc1cccc2c1C(=O)c1c(O)c3c(c(O)c1C2=O)C[C@@](O)(C(=O)CO)C[C@@H]3O[C@H]1C[C@H](N)[C@H](O)[C@H](C)O1` [DOXORUBICIN] are -16% and -14%.
